Laboratory results as given in ChEMBL document CHEMBL1795319, “Design, synthesis and antifungal evaluation of 1-(2-(2,4-difluorophenyl)-2-hydroxy-3-(1H-1,2,4-triazol-1-yl)propyl)-1H-1,2,4-triazol-5(4H)-one” (2011).
Converted amounts (≈) assume the structure as drawn.

Tests used:
Assay type in all cases: functional
Candida albicans [1] = test: Antifungal activity against Candida albicans SC5314 after 24 hrs by micro-broth dilution method; details: SC5314, 24 h
Candida albicans [2] = test: Antifungal activity against Candida albicans Y0109 after 24 hrs by micro-broth dilution method; details: Y0109, 24 h
Candida tropicalis = test: Antifungal activity against Candida tropicalis by micro-broth dilution method
Candida parapsilosis = test: Antifungal activity against Candida parapsilosis by micro-broth dilution method; details: Lodderomyces parapsilosis
Kluyveromyces marxianus = test: Antifungal activity against Candida kefyr by micro-broth dilution method
Cryptococcus neoformans = test: Antifungal activity against Cryptococcus neoformans BLS108 after 72 hrs by micro-broth dilution method; details: BLS108, 72 h
Trichophyton rubrum = test: Antifungal activity against Trichophyton rubrum by micro-broth dilution method
Aspergillus fumigatus = test: Antifungal activity against Aspergillus fumigatus by broth microdilution method

| Compound | MIC80 (Candida albicans [1]) [µg/mL] | MIC80 (Candida albicans [2]) [µg/mL] | MIC80 (Candida tropicalis) [µg/mL] | MIC80 (Candida parapsilosis) [µg/mL] | MIC80 (Kluyveromyces marxianus) [µg/mL] | MIC80 (Cryptococcus neoformans) [µg/mL] | MIC80 (Trichophyton rubrum) [µg/mL] | MIC80 (Aspergillus fumigatus) [µg/mL] |
| --- | --- | --- | --- | --- | --- | --- | --- | --- |
| CCC(=O)Nc1ccc(-n2cnn(CC(O)(Cn3cncn3)c3ccc(F)cc3F)c2=O)cc1 (racemic) | 1 (≈ 2.13 µM) | 4 (≈ 8.52 µM) | 16 (≈ 34.1 µM) | 4 (≈ 8.52 µM) | 64 (≈ 136 µM) | > 64 | > 64 | > 64 |
| CCCC(=O)Nc1ccc(-n2cnn(CC(O)(Cn3cncn3)c3ccc(F)cc3F)c2=O)cc1 (racemic) | 4 (≈ 8.27 µM) | 4 (≈ 8.27 µM) | 4 (≈ 8.27 µM) | 4 (≈ 8.27 µM) | 16 (≈ 33.1 µM) | > 64 | > 64 | > 64 |
| CCCCC(=O)Nc1ccc(-n2cnn(CC(O)(Cn3cncn3)c3ccc(F)cc3F)c2=O)cc1 (racemic) | 0.00097 (≈ 0.00195 µM) | 0.00024 (≈ 0.000482 µM) | 0.0625 (≈ 0.126 µM) | 0.00024 (≈ 0.000482 µM) | 64 (≈ 129 µM) | 0.0625 (≈ 0.126 µM) | > 64 | > 64 |
| CCCCCC(=O)Nc1ccc(-n2cnn(CC(O)(Cn3cncn3)c3ccc(F)cc3F)c2=O)cc1 (racemic) | 0.00097 (≈ 0.0019 µM) | 0.00024 (≈ 0.000469 µM) | 0.00097 (≈ 0.0019 µM) | 0.00024 (≈ 0.000469 µM) | 4 (≈ 7.82 µM) | 0.0625 (≈ 0.122 µM) | 64 (≈ 125 µM) | > 64 |
| CCCCCCC(=O)Nc1ccc(-n2cnn(CC(O)(Cn3cncn3)c3ccc(F)cc3F)c2=O)cc1 (racemic) | 0.0039 (≈ 0.00742 µM) | 0.0625 (≈ 0.119 µM) | 64 (≈ 122 µM) | 1 (≈ 1.9 µM) | 1 (≈ 1.9 µM) | 0.0625 (≈ 0.119 µM) | 64 (≈ 122 µM) | > 64 |
| CCCCCCCC(=O)Nc1ccc(-n2cnn(CC(O)(Cn3cncn3)c3ccc(F)cc3F)c2=O)cc1 (racemic) | 4 (≈ 7.41 µM) | 16 (≈ 29.7 µM) | 64 (≈ 119 µM) | 64 (≈ 119 µM) | > 64 | > 64 | > 64 | > 64 |
| N#CCC(=O)Nc1ccc(-n2cnn(CC(O)(Cn3cncn3)c3ccc(F)cc3F)c2=O)cc1 (racemic) | 0.25 (≈ 0.52 µM) | 1 (≈ 2.08 µM) | 1 (≈ 2.08 µM) | 1 (≈ 2.08 µM) | > 64 | > 64 | 16 (≈ 33.3 µM) | > 64 |
| O=C(Nc1ccc(-n2cnn(CC(O)(Cn3cncn3)c3ccc(F)cc3F)c2=O)cc1)C1CC1 (racemic) | 0.0625 (≈ 0.13 µM) | 0.0625 (≈ 0.13 µM) | 1 (≈ 2.08 µM) | 0.25 (≈ 0.519 µM) | > 64 | > 64 | > 64 | > 64 |
| O=C(Nc1ccc(-n2cnn(CC(O)(Cn3cncn3)c3ccc(F)cc3F)c2=O)cc1)C1CCCCC1 (racemic) | > 64 | > 64 | > 64 | > 64 | > 64 | > 64 | 16 (≈ 30.6 µM) | > 64 |
| O=C(Nc1ccc(-n2cnn(CC(O)(Cn3cncn3)c3ccc(F)cc3F)c2=O)cc1)c1cccnc1 (racemic) | 1 (≈ 1.93 µM) | 1 (≈ 1.93 µM) | 4 (≈ 7.71 µM) | 1 (≈ 1.93 µM) | 16 (≈ 30.9 µM) | 64 (≈ 123 µM) | 64 (≈ 123 µM) | > 64 |
| O=C(Nc1ccc(-n2cnn(CC(O)(Cn3cncn3)c3ccc(F)cc3F)c2=O)cc1)c1ccccn1 (racemic) | 1 (≈ 1.93 µM) | 4 (≈ 7.71 µM) | > 64 | 4 (≈ 7.71 µM) | 16 (≈ 30.9 µM) | > 64 | > 64 | > 64 |
| O=C(Nc1ccc(-n2cnn(CC(O)(Cn3cncn3)c3ccc(F)cc3F)c2=O)cc1)c1ccco1 (racemic) | 0.25 (≈ 0.493 µM) | 0.25 (≈ 0.493 µM) | 1 (≈ 1.97 µM) | 0.0625 (≈ 0.123 µM) | 4 (≈ 7.88 µM) | 16 (≈ 31.5 µM) | > 64 | > 64 |
| O=C(Nc1ccc(-n2cnn(CC(O)(Cn3cncn3)c3ccc(F)cc3F)c2=O)cc1)c1cccs1 (racemic) | 0.25 (≈ 0.478 µM) | 1 (≈ 1.91 µM) | 16 (≈ 30.6 µM) | 4 (≈ 7.64 µM) | > 64 | > 64 | > 64 | > 64 |
| C[C@@H]1[C@H](O)[C@@H](C)/C=C/C=C/C=C/C=C/C=C/C=C/C=C/[C@H](O[C@@H]2O[C@H](C)[C@@H](O)[C@H](N)[C@@H]2O)C[C@@H]2O[C@](O)(C[C@@H](O)C[C@@H](O)[C@H](O)CC[C@@H](O)C[C@@H](O)CC(=O)O[C@H]1C)C[C@H](O)[C@H]2C(=O)O [AMPHOTERICIN B] | 0.25 (≈ 0.271 µM) | 0.25 (≈ 0.271 µM) | 1 (≈ 1.08 µM) | 0.25 (≈ 0.271 µM) | 0.25 (≈ 0.271 µM) | 1 (≈ 1.08 µM) | 4 (≈ 4.33 µM) | 1 (≈ 1.08 µM) |
| OC(Cn1cncn1)(Cn1cncn1)c1ccc(F)cc1F [FLUCONAZOLE] | 0.25 (≈ 0.816 µM) | 0.25 (≈ 0.816 µM) | 1 (≈ 3.27 µM) | 0.25 (≈ 0.816 µM) | 4 (≈ 13.1 µM) | 1 (≈ 3.27 µM) | 1 (≈ 3.27 µM) | > 64 |
| CCC(C)n1ncn(-c2ccc(N3CCN(c4ccc(OCC5COC(Cn6cncn6)(c6ccc(Cl)cc6Cl)O5)cc4)CC3)cc2)c1=O (stereo not drawn) [ITRACONAZOLE] | 0.0625 (≈ 0.0886 µM) | 0.0625 (≈ 0.0886 µM) | 0.0625 (≈ 0.0886 µM) | 0.0625 (≈ 0.0886 µM) | 0.0625 (≈ 0.0886 µM) | 0.0625 (≈ 0.0886 µM) | 0.0625 (≈ 0.0886 µM) | 0.0625 (≈ 0.0886 µM) |
